Here are results for eight molecules from PubChem BioAssay AID1259407 (Chemical Carcinogenesis Research Information System (CCRIS), 2018).

The subject of the series is CCRIS mutagenicity, Ames/micronucleus/aberration tests. The series can be described thus: CCRIS mutagenicity studies.
The mark [1] stands for this setting: Test System: AMES SALMONELLA TYPHIMURIUM, Strain/Indicator: TA100, Metabolic Activation: NONE, Method: STANDARD PLATE.
Where [2] appears, read: Test System: AMES SALMONELLA TYPHIMURIUM, Strain/Indicator: TA100, Metabolic Activation: RAT, LIVER, S-9, PHENOBARBITAL AND 5,6-BENZOFLAVONE, Method: PREINCUBATION

The source made the active and inactive calls. How the calls were made is not given here.

As for `O=c1[nH]cnc2c1ncn2[C@H]1CC[C@@H](CO)O1`, the mutagenic call was “inactive; negative” (Test System: AMES SALMONELLA TYPHIMURIUM, Strain/Indicator: TA98, Metabolic Activation: HAMSTER, LIVER, S-9, AROCLOR 1254, Method: STANDARD PLATE); “inactive; negative” (Test System: AMES SALMONELLA TYPHIMURIUM, Strain/Indicator: TA98, Metabolic Activation: NONE, Method: STANDARD PLATE); “inactive; negative” (Test System: AMES SALMONELLA TYPHIMURIUM, Strain/Indicator: TA98, Metabolic Activation: RAT, LIVER, S-9, AROCLOR 1254, Method: STANDARD PLATE); “inactive; negative” (Test System: AMES SALMONELLA TYPHIMURIUM, Strain/Indicator: TA100, Metabolic Activation: HAMSTER, LIVER, S-9, AROCLOR 1254, Method: STANDARD PLATE); “inactive; negative” under setting [1]; “inactive; negative” (Test System: AMES SALMONELLA TYPHIMURIUM, Strain/Indicator: TA100, Metabolic Activation: RAT, LIVER, S-9, AROCLOR 1254, Method: STANDARD PLATE). The mutagenic call (Test System: AMES SALMONELLA TYPHIMURIUM, Strain/Indicator: TA1535, Metabolic Activation: HAMSTER, LIVER, S-9, AROCLOR 1254, Method: STANDARD PLATE) was “inactive; negative”; the mutagenic call (Test System: AMES SALMONELLA TYPHIMURIUM, Strain/Indicator: TA1535, Metabolic Activation: NONE, Method: STANDARD PLATE) is “inactive; negative”; the mutagenic call (Test System: AMES SALMONELLA TYPHIMURIUM, Strain/Indicator: TA1535, Metabolic Activation: RAT, LIVER, S-9, AROCLOR 1254, Method: STANDARD PLATE) is “inactive; negative”; the mutagenic call (Test System: AMES SALMONELLA TYPHIMURIUM, Strain/Indicator: TA1537, Metabolic Activation: HAMSTER, LIVER, S-9, AROCLOR 1254, Method: STANDARD PLATE) is “inactive; negative”; the mutagenic call (Test System: AMES SALMONELLA TYPHIMURIUM, Strain/Indicator: TA1537, Metabolic Activation: NONE, Method: STANDARD PLATE) is “inactive; negative”; the mutagenic call (Test System: AMES SALMONELLA TYPHIMURIUM, Strain/Indicator: TA1537, Metabolic Activation: RAT, LIVER, S-9, AROCLOR 1254, Method: STANDARD PLATE) was “inactive; negative”. For the same molecule, the mutagenic call reads like this: (Test System: AMES SALMONELLA TYPHIMURIUM, Strain/Indicator: TA1538, Metabolic Activation: HAMSTER, LIVER, S-9, AROCLOR 1254, Method: STANDARD PLATE) “inactive; negative”; (Test System: AMES SALMONELLA TYPHIMURIUM, Strain/Indicator: TA1538, Metabolic Activation: NONE, Method: STANDARD PLATE) “inactive; negative”; (Test System: AMES SALMONELLA TYPHIMURIUM, Strain/Indicator: TA1538, Metabolic Activation: RAT, LIVER, S-9, AROCLOR 1254, Method: STANDARD PLATE) “inactive; negative”; (Test System: HUMAN B LYMPHOBLASTOID CELLS, Strain/Indicator: TK6 CELL (HPRT)/6-THIOGUANINE, Metabolic Activation: NONE, Method: SUSPENSION/PLATE) “active; positive”; (Test System: HUMAN B LYMPHOBLASTOID CELLS, Strain/Indicator: TK6 CELL (TK+/-)/TRIFLUOROTHYMIDINE, Metabolic Activation: NONE, Method: SUSPENSION/PLATE) “active; positive”.

For the molecule `Fc1ccc2ccc3cccnc3c2c1`, the mutagenic call under setting [2] is “active; positive”.

In the case of `O=C(O)C(Cl)(Cl)Cl`, the mutagenic call is “inactive; negative” (End Point: IN VIVO MICRONUCLEUS, Test System: BONE MARROW POLYCHROMATIC ERYTHROCYTES, Species: MOUSE, Strain/Sex: C57BL/6JFBL10/ALPK/FEMALE, Route: IP INJECTION 2 TIMES AT 24 HR INTERVAL); “inactive; negative; a statistically significant increase was observed at 675 mg/kg after 2” (End Point: IN VIVO MICRONUCLEUS, Test System: BONE MARROW POLYCHROMATIC ERYTHROCYTES, Species: MOUSE, Strain/Sex: C57BL/6JFBL10/ALPK/MALE, Route: IP INJECTION 2 TIMES AT 24 HR INTERVAL); “inactive; negative” (Test System: AMES SALMONELLA TYPHIMURIUM, Strain/Indicator: RSJ100, Metabolic Activation: NONE, Method: PREINCUBATION); “inactive; negative” (Test System: AMES SALMONELLA TYPHIMURIUM, Strain/Indicator: RSJ100, Metabolic Activation: RAT LIVER S-9, Method: PREINCUBATION); “inactive; negative” (Test System: AMES SALMONELLA TYPHIMURIUM, Strain/Indicator: TA98, Metabolic Activation: NONE, Method: PREINCUBATION); “inactive; negative” (Test System: AMES SALMONELLA TYPHIMURIUM, Strain/Indicator: TA98, Metabolic Activation: RAT LIVER S-9, Method: PREINCUBATION). Further, the mutagenic call is “inactive; negative” (Test System: AMES SALMONELLA TYPHIMURIUM, Strain/Indicator: TA98, Metabolic Activation: RAT, LIVER, S-9, PHENOBARBITAL AND 5,6-BENZOFLAVONE, Method: PREINCUBATION); “inactive; negative” (Test System: AMES SALMONELLA TYPHIMURIUM, Strain/Indicator: TA100, Metabolic Activation: NONE, Method: BAG VAPORIZATION); “active; positive” (Test System: AMES SALMONELLA TYPHIMURIUM, Strain/Indicator: TA100, Metabolic Activation: NONE, Method: FLUCTUATION TEST); “inactive; negative” (Test System: AMES SALMONELLA TYPHIMURIUM, Strain/Indicator: TA100, Metabolic Activation: NONE, Method: PREINCUBATION); “inactive; negative” (Test System: AMES SALMONELLA TYPHIMURIUM, Strain/Indicator: TA100, Metabolic Activation: RAT LIVER S-9, Method: PREINCUBATION); “inactive; negative” (Test System: AMES SALMONELLA TYPHIMURIUM, Strain/Indicator: TA100, Metabolic Activation: RAT, LIVER, S-9, AROCLOR 1254, Method: BAG VAPORIZATION). The mutagenic call was “active; positive” (Test System: AMES SALMONELLA TYPHIMURIUM, Strain/Indicator: TA100, Metabolic Activation: RAT, LIVER, S-9, AROCLOR 1254, Method: FLUCTUATION TEST); “inactive; negative” under setting [2]; “inactive; negative” (Test System: AMES SALMONELLA TYPHIMURIUM, Strain/Indicator: TA102, Metabolic Activation: NONE, Method: STANDARD PLATE); “inactive; negative” (Test System: AMES SALMONELLA TYPHIMURIUM, Strain/Indicator: TA102, Metabolic Activation: RAT LIVER S-9, AROCLOR 1254, Method: STANDARD PLATE); “active; positive” (Test System: MOUSE LYMPHOMA, Strain/Indicator: L5178Y (TK+/TK- -3.7.2C), Metabolic Activation: S-9).

`CN(C)c1ccc(N=Nc2ccccc2CO)cc1`: the mutagenic call (Test System: AMES SALMONELLA TYPHIMURIUM, Strain/Indicator: TA98, Metabolic Activation: RAT, LIVER, S-9, N-BENZYLIMIDAZOLE, Method: PREINCUBATION) was “active; positive”.

In the case of `Cc1c2ccccc2cc2ccc3ccccc3c12`, the mutagenic call (Test System: AMES SALMONELLA TYPHIMURIUM, Strain/Indicator: TA98, Method: STANDARD PLATE) was “active; positive”; the mutagenic call (Test System: AMES SALMONELLA TYPHIMURIUM, Strain/Indicator: TA100, Metabolic Activation: RAT, INTACT HEPATOCYTES, AROCLOR 1254, Method: PREINCUBATION) is “active; positive”; the mutagenic call (Test System: AMES SALMONELLA TYPHIMURIUM, Strain/Indicator: TA100, Metabolic Activation: RAT, LIVER, S-9, PHENOBARBITAL, Method: STANDARD PLATE) is “active; positive”; the mutagenic call (Test System: AMES SALMONELLA TYPHIMURIUM, Strain/Indicator: TA100, Metabolic Activation: RAT, NADPH-FORTIFIED HOMOGENIZED HEPATOCYTES, AROCLOR 1254, Method: PREINCUBATION) was “active; positive”; the mutagenic call (Test System: AMES SALMONELLA TYPHIMURIUM, Strain/Indicator: TA100, Metabolic Activation: RAT, SONICATED HEPATOCYTES, AROCLOR 1254, Method: PREINCUBATION) was “active; positive”; the mutagenic call (Test System: AMES SALMONELLA TYPHIMURIUM, Strain/Indicator: TA100, Method: STANDARD PLATE) is “active; positive”.

As to `CCCN(CCCC(=O)O)N=O`, the mutagenic call (Test System: AMES SALMONELLA TYPHIMURIUM, Strain/Indicator: TA1535, Metabolic Activation: RAT, LIVER, S-9, KC500 OR PHENOBARBITAL, Method: LIQUID SUSPENSION) is “active; positive”.

Consider `O=C1c2cc(O)cc(O)c2C(=O)c2c1cc1c(c2O)[C@@H]2C=CO[C@@H]2O1`, for which the mutagenic call (Test System: UDS RODENT HEPATOCYTES, Strain/Indicator: THY INCORP, Metabolic Activation: NONE, Method: AUTORADIOGRAPHY) is “active; positive”.

As to `Cc1ccc(S(=O)(=O)OCc2ccccc2)cc1`, under setting [1], the mutagenic call was “inactive; negative”.
